Test results: PubChem BioAssay (NCI)
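In this assay, cells in 96-well plates receive the compound at five concentrations for 48 hours. Endpoints are linearly interpolated between the surrounding concentrations. At the GI50, growth is halved. Definition used: TGI = concentration required for complete inhibition of growth.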

Legend:
Test in all cases: DTP human tumour cell line panel, 48 h
RPMI-8226 leukemia = test system: RPMI-8226 leukemia
MDA-MB-435 = test system: MDA-MB-435
HCT-15 colon = test system: HCT-15 colon
SK-MEL-5 melanoma = test system: SK-MEL-5 melanoma
HT29 colon = test system: HT29 colon
HCT-116 colon = test system: HCT-116 colon
TK-10 renal = test system: TK-10 renal
SR leukemia = test system: SR leukemia
UACC-257 melanoma = test system: UACC-257 melanoma
CCRF-CEM leukemia = test system: CCRF-CEM leukemia
EKVX NSCLC = test system: EKVX NSCLC
SNB-19 CNS = test system: SNB-19 CNS
NCI-H522 lung = test system: NCI-H522 lung
A549 NSCLC = test system: A549 NSCLC
SK-MEL-28 melanoma = test system: SK-MEL-28 melanoma
ACHN renal = test system: ACHN renal
IGROV1 ovarian = test system: IGROV1 ovarian
HS 578T breast = test system: HS 578T breast
NCI-H226 lung = test system: NCI-H226 lung
PC-3 prostate = test system: PC-3 prostate
LOX IMVI melanoma = test system: LOX IMVI melanoma
MCF7 breast = test system: MCF7 breast
OVCAR-4 ovarian = test system: OVCAR-4 ovarian
RXF 393 renal = test system: RXF 393 renal
U251 CNS = test system: U251 CNS
MDA-MB-468 breast = test system: MDA-MB-468 breast
SK-OV-3 ovarian = test system: SK-OV-3 ovarian
NCI-H460 lung = test system: NCI-H460 lung
KM12 colon = test system: KM12 colon
DU-145 prostate = test system: DU-145 prostate
SW-620 colon = test system: SW-620 colon
BT-549 breast = test system: BT-549 breast
786-0 renal = test system: 786-0 renal
OVCAR-5 ovarian = test system: OVCAR-5 ovarian
NCI-H23 lung = test system: NCI-H23 lung
MDA-MB-231 breast = test system: MDA-MB-231 breast
MALME-3M melanoma = test system: MALME-3M melanoma
M14 melanoma = test system: M14 melanoma
SK-MEL-2 melanoma = test system: SK-MEL-2 melanoma
HOP-62 NSCLC = test system: HOP-62 NSCLC
OVCAR-3 ovarian = test system: OVCAR-3 ovarian
COLO 205 colon = test system: COLO 205 colon
SN12C renal = test system: SN12C renal
SF-268 CNS = test system: SF-268 CNS
UACC-62 melanoma = test system: UACC-62 melanoma
MOLT-4 leukemia = test system: MOLT-4 leukemia
SF-539 CNS = test system: SF-539 CNS
UO-31 renal = test system: UO-31 renal
K-562 leukemia = test system: K-562 leukemia
A498 renal = test system: A498 renal
SF-295 CNS = test system: SF-295 CNS
OVCAR-8 ovarian = test system: OVCAR-8 ovarian
HCC-2998 colon = test system: HCC-2998 colon
HOP-92 NSCLC = test system: HOP-92 NSCLC
CAKI-1 renal = test system: CAKI-1 renal
T-47D breast = test system: T-47D breast
HL-60(TB) leukemia = test system: HL-60(TB) leukemia

With `CN(C)c1nc(NCCNS(=O)(=O)c2ccc(C(=O)/C=C/c3ccc(C(F)(F)F)cc3)cc2)nc(N2CCOCC2)n1` the GI50 (RPMI-8226 leukemia) was 1.77 µM, the TGI (RPMI-8226 leukemia) was 5.72 µM and the GI50 (MDA-MB-435) was 10.3 µM. For the same compound, the TGI (MDA-MB-435) was 23 µM, the GI50 (HCT-15 colon) was 1.86 µM and the TGI (HCT-15 colon) was 3.62 µM. For the same compound, the GI50 (SK-MEL-5 melanoma) was 15.8 µM, the TGI (SK-MEL-5 melanoma) was 29.5 µM and the GI50 (HT29 colon) was 2.06 µM. The TGI (HT29 colon) was 4.51 µM, the GI50 (HCT-116 colon) was 3.19 µM and the TGI (HCT-116 colon) was 10 µM. It also gave a GI50 (TK-10 renal) of 15.5 µM, a TGI (TK-10 renal) of 29.5 µM and a GI50 (SR leukemia) of 6.31 µM. It also gave a TGI (SR leukemia) greater than 100 µM, a GI50 (UACC-257 melanoma) of 15.3 µM and a TGI (UACC-257 melanoma) of 29.4 µM. The GI50 (CCRF-CEM leukemia) was 3.2 µM, the TGI (CCRF-CEM leukemia) was greater than 100 µM and the GI50 (EKVX NSCLC) was 14.3 µM. It also gave a TGI (EKVX NSCLC) of 27.4 µM, a GI50 (SNB-19 CNS) of 13.5 µM and a TGI (SNB-19 CNS) of 26.4 µM. It also gave a GI50 (NCI-H522 lung) of 15.2 µM, a TGI (NCI-H522 lung) of 29.8 µM and a GI50 (A549 NSCLC) of 13.8 µM. The TGI (A549 NSCLC) was 29.3 µM, the GI50 (SK-MEL-28 melanoma) was 14.4 µM and the TGI (SK-MEL-28 melanoma) was 27.5 µM. The GI50 (ACHN renal) was 8.6 µM, the TGI (ACHN renal) was 20.7 µM and the GI50 (IGROV1 ovarian) was 1.77 µM. It also gave a TGI (IGROV1 ovarian) of 3.51 µM, a GI50 (HS 578T breast) of 17.8 µM and a TGI (HS 578T breast) of 64.4 µM. For the same compound, the GI50 (NCI-H226 lung) was 16.1 µM, the TGI (NCI-H226 lung) was 35.6 µM and the GI50 (PC-3 prostate) was 10.8 µM. For the same compound, the TGI (PC-3 prostate) was 25.4 µM, the GI50 (LOX IMVI melanoma) was 1.68 µM and the TGI (LOX IMVI melanoma) was 3.16 µM. The GI50 (MCF7 breast) was 1.68 µM, the TGI (MCF7 breast) was 3.34 µM and the GI50 (OVCAR-4 ovarian) was 14.8 µM. The TGI (OVCAR-4 ovarian) was 28.9 µM, the GI50 (RXF 393 renal) was 11.5 µM and the TGI (RXF 393 renal) was 23.7 µM. For the same compound, the GI50 (U251 CNS) was 2.95 µM, the TGI (U251 CNS) was 11 µM and the GI50 (MDA-MB-468 breast) was 5.11 µM. The TGI (MDA-MB-468 breast) was 18.4 µM, the GI50 (SK-OV-3 ovarian) was 14.7 µM and the TGI (SK-OV-3 ovarian) was 29.5 µM. The GI50 (NCI-H460 lung) was 16.1 µM, the TGI (NCI-H460 lung) was 32.5 µM and the GI50 (KM12 colon) was 8.95 µM. The TGI (KM12 colon) was 25.5 µM, the GI50 (DU-145 prostate) was 15.4 µM and the TGI (DU-145 prostate) was 28.9 µM. The GI50 (SW-620 colon) was 3.3 µM, the TGI (SW-620 colon) was 11.1 µM and the GI50 (BT-549 breast) was 15.6 µM. It also gave a TGI (BT-549 breast) of 29.3 µM, a GI50 (786-0 renal) of 14.5 µM and a TGI (786-0 renal) of 28.2 µM. For the same compound, the GI50 (OVCAR-5 ovarian) was 14.5 µM, the TGI (OVCAR-5 ovarian) was 27.7 µM and the GI50 (NCI-H23 lung) was 13 µM. For the same compound, the TGI (NCI-H23 lung) was 26.2 µM, the GI50 (MDA-MB-231 breast) was 11.7 µM and the TGI (MDA-MB-231 breast) was 24.2 µM. It also gave a GI50 (MALME-3M melanoma) of 14.4 µM, a TGI (MALME-3M melanoma) of 27.6 µM and a GI50 (M14 melanoma) of 9.83 µM. For the same compound, the TGI (M14 melanoma) was 22.2 µM, the GI50 (SK-MEL-2 melanoma) was 16.3 µM and the TGI (SK-MEL-2 melanoma) was 30.4 µM. The GI50 (HOP-62 NSCLC) was 17 µM, the TGI (HOP-62 NSCLC) was 32.3 µM and the GI50 (OVCAR-3 ovarian) was 16.4 µM. For the same compound, the TGI (OVCAR-3 ovarian) was 30.6 µM, the GI50 (COLO 205 colon) was 15 µM and the TGI (COLO 205 colon) was 32.4 µM. The GI50 (SN12C renal) was 12.5 µM, the TGI (SN12C renal) was 25 µM and the GI50 (SF-268 CNS) was 16.3 µM. The TGI (SF-268 CNS) was 37.8 µM, the GI50 (UACC-62 melanoma) was 11.2 µM and the TGI (UACC-62 melanoma) was 23.3 µM. For the same compound, the GI50 (MOLT-4 leukemia) was 3.48 µM, the TGI (MOLT-4 leukemia) was greater than 100 µM and the GI50 (SF-539 CNS) was 13 µM. For the same compound, the TGI (SF-539 CNS) was 25.7 µM, the GI50 (UO-31 renal) was 11.9 µM and the TGI (UO-31 renal) was 24.2 µM. For the same compound, the GI50 (K-562 leukemia) was 3.21 µM, the TGI (K-562 leukemia) was greater than 100 µM and the GI50 (A498 renal) was 13.3 µM. It also gave a TGI (A498 renal) of 26.6 µM, a GI50 (SF-295 CNS) of 8.11 µM and a TGI (SF-295 CNS) of 20.6 µM. It also gave a GI50 (OVCAR-8 ovarian) of 14.4 µM, a TGI (OVCAR-8 ovarian) of 28.1 µM and a GI50 (HCC-2998 colon) of 12.9 µM. It also gave a TGI (HCC-2998 colon) of 26 µM, a GI50 (HOP-92 NSCLC) of 15.2 µM and a TGI (HOP-92 NSCLC) of 31.5 µM. The GI50 (CAKI-1 renal) was 11.4 µM, the TGI (CAKI-1 renal) was 24.3 µM and the GI50 (T-47D breast) was 5.5 µM. The TGI (T-47D breast) was 27.2 µM, the GI50 (HL-60(TB) leukemia) was 5.12 µM and the TGI (HL-60(TB) leukemia) was 86.3 µM.
